Reference: patent US20180289678A1, “PHARMACEUTICAL COMPOSITION, PHARMACEUTICAL DOSAGE FORM, PROCESS FOR THEIR PREPARATION, METHODS FOR TREATING AND USES THEREOF” (Boehringer Ingelheim International GmbH, priority 2009, published 2018)
Like-named read-outs stand apart in the source and are kept apart here.

Experiment: Study .5: single dose study in healthy Japanese volunteers, pharmacokinetic parameters
Assay type: in vivo, human
Settings: Study .5, fasted
Description: 5. Pharmacokinetic Parameters
The pharmacokinetic parameters of pharmaceutical compositions and pharmaceutical dosage forms are assessed in healthy volunteer and patient populations. In the studies shown below, the participants fasted on the day of sampling, unless as otherwise stated (see for example study .3). The active substance in the studies below is the compound (I.9), preferably in the crystalline form (I.9X), and the dose of active ingredient is indicated in mg.
For the quantification of plasma concentrations of the active ingredient, 2.7 mL of blood was collected and transferred into an EDTA (ethylendiaminetetraacetic acid)-anticoagulant blood drawing tube. The EDTA-anticoagulated blood samples were centrifuged immediately after collection. Centrifugation lasted for about 10 minutes (at about 2,000×gf to 4,000×gf) at 4-8° C. or within 30 minutes while stored on ice. Concentrations of active substance in EDTA human plasma samples were quantitated using a HPLC/MS/MS method. The assay method comprised a solid phase supported liquid-liquid extraction of human plasma coupled with HPLC/MS/MS determination of the extracted samples. The HPLC/MS/MS assay was validated for the range of 1.11 to 1110 nM in human plasma.
Study .5: Single dose study in a healthy volunteer population of N=48 (Japanese volunteers). Healthy volunteers were administered tablets as described in Example 11 (section Examples of formulations).
AUC0-inf:area under the concentration-time curve of the analyte in plasma over the time interval from 0 extrapolated to infinity.
Cmax: maximum concentration of the analyte in plasma.
Tmax: time from dosing to maximum concentration.

OC[C@H]1O[C@@H](c2ccc(Cl)c(Cc3ccc(O[C@H]4CCOC4)cc3)c2)[C@H](O)[C@@H](O)[C@@H]1O [Compound (I.9), 1-chloro-4-(β-D-glucopyranos-1-yl)-2-[4-((S)-tetrahydrofuran-3-yloxy)-benzyl]-benzene]
AUC0-inf Max (5 mg single dose): 1.31 µM·h | AUC0-inf Min (5 mg single dose): 1 µM·h | AUC0-inf,norm Max (5 mg single dose): 262 nmol·h/L/mg | AUC0-inf,norm Median (5 mg single dose): 230 nmol·h/L/mg | AUC0-inf,norm Min (5 mg single dose): 200 nmol·h/L/mg | AUC0-inf,norm gMean (5 mg single dose): 228 nmol·h/L/mg | Cmax,norm Max (5 mg single dose): 46 nmol/L/mg | Cmax,norm Median (5 mg single dose): 31 nmol/L/mg | Cmax,norm Min (5 mg single dose): 25 nmol/L/mg | Cmax,norm gMean (5 mg single dose): 32 nmol/L/mg | tmax Min (5 mg single dose): 0.750 h | Cmax (5 mg single dose, read-out: Cmax Max): 230 nM | Cmax (5 mg single dose, read-out: Cmax Min): 123 nM | AUC0-inf Max (10 mg single dose): 3.19 µM·h | AUC0-inf Min (10 mg single dose): 2.34 µM·h | AUC0-inf,norm Max (10 mg single dose): 319 nmol·h/L/mg | AUC0-inf,norm Median (10 mg single dose): 264 nmol·h/L/mg | AUC0-inf,norm Min (10 mg single dose): 234 nmol·h/L/mg | AUC0-inf,norm gMean (10 mg single dose): 266 nmol·h/L/mg | Cmax,norm Max (10 mg single dose): 45 nmol/L/mg | Cmax,norm Median (10 mg single dose): 40 nmol/L/mg | Cmax,norm Min (10 mg single dose): 24 nmol/L/mg | Cmax,norm gMean (10 mg single dose): 37 nmol/L/mg | tmax Max (10 mg single dose): 3.00 h | tmax Min (10 mg single dose): 1.00 h | Cmax (10 mg single dose, read-out: Cmax Max): 454 nM | Cmax (10 mg single dose, read-out: Cmax Min): 242 nM | AUC0-inf Max (25 mg single dose): 7.15 µM·h | AUC0-inf Min (25 mg single dose): 5.04 µM·h | AUC0-inf,norm Max (25 mg single dose): 286 nmol·h/L/mg | AUC0-inf,norm Median (25 mg single dose): 254 nmol·h/L/mg | AUC0-inf,norm Min (25 mg single dose): 202 nmol·h/L/mg | AUC0-inf,norm gMean (25 mg single dose): 245 nmol·h/L/mg | Cmax,norm Max (25 mg single dose): 32 nmol/L/mg | Cmax,norm Median (25 mg single dose): 26 nmol/L/mg | Cmax,norm Min (25 mg single dose): 24 nmol/L/mg | Cmax,norm gMean (25 mg single dose): 26 nmol/L/mg | tmax Max (25 mg single dose): 4.00 h | tmax Min (25 mg single dose): 1.00 h | Cmax (25 mg single dose, read-out: Cmax Max): 790 nM | Cmax (25 mg single dose, read-out: Cmax Min): 605 nM | AUC(0-inf) (human, plasma, oral, 5 mg, 5 mg single dose, read-out: AUC0-inf Mean): 1.14 µM·h | AUC(0-inf) (human, plasma, oral, 5 mg, 5 mg single dose, read-out: AUC0-inf Median): 1.15 µM·h | AUC(0-inf) (human, plasma, oral, 5 mg, 5 mg single dose, read-out: AUC0-inf gMean): 1.14 µM·h | Cmax (human, plasma, oral, 5 mg, 5 mg single dose, read-out: Cmax Mean): 166 nM | Cmax (human, plasma, oral, 5 mg, 5 mg single dose, read-out: Cmax Median): 153 nM | Cmax (human, plasma, oral, 5 mg, 5 mg single dose, read-out: Cmax gMean): 161 nM | Tmax (human, plasma, oral, 5 mg, 5 mg single dose, read-out: tmax Mean): 1.63 h | Tmax (human, plasma, oral, 5 mg, 5 mg single dose, read-out: tmax Median): 2 h | Tmax (human, plasma, oral, 5 mg, 5 mg single dose, read-out: tmax gMean): 1.51 h | AUC(0-inf) (human, plasma, oral, 10 mg, 10 mg single dose, read-out: AUC0-inf Mean): 2.67 µM·h | AUC(0-inf) (human, plasma, oral, 10 mg, 10 mg single dose, read-out: AUC0-inf Median): 2.64 µM·h | AUC(0-inf) (human, plasma, oral, 10 mg, 10 mg single dose, read-out: AUC0-inf gMean): 2.66 µM·h | Cmax (human, plasma, oral, 10 mg, 10 mg single dose, read-out: Cmax Mean): 379 nM | Cmax (human, plasma, oral, 10 mg, 10 mg single dose, read-out: Cmax Median): 398 nM | Cmax (human, plasma, oral, 10 mg, 10 mg single dose, read-out: Cmax gMean): 372 nM | Tmax (human, plasma, oral, 10 mg, 10 mg single dose, read-out: tmax Mean): 1.67 h | Tmax (human, plasma, oral, 10 mg, 10 mg single dose, read-out: tmax Median): 1.5 h | Tmax (human, plasma, oral, 10 mg, 10 mg single dose, read-out: tmax gMean): 1.54 h | AUC(0-inf) (human, plasma, oral, 25 mg, 25 mg single dose, read-out: AUC0-inf Mean): 6.18 µM·h | AUC(0-inf) (human, plasma, oral, 25 mg, 25 mg single dose, read-out: AUC0-inf Median): 6.34 µM·h | AUC(0-inf) (human, plasma, oral, 25 mg, 25 mg single dose, read-out: AUC0-inf gMean): 6.13 µM·h | Cmax (human, plasma, oral, 25 mg, 25 mg single dose, read-out: Cmax Mean): 661 nM | Cmax (human, plasma, oral, 25 mg, 25 mg single dose, read-out: Cmax Median): 643 nM | Cmax (human, plasma, oral, 25 mg, 25 mg single dose, read-out: Cmax gMean): 658 nM | Tmax (human, plasma, oral, 25 mg, 25 mg single dose, read-out: tmax Mean): 2.33 h | Tmax (human, plasma, oral, 25 mg, 25 mg single dose, read-out: tmax Median): 2 h | Tmax (human, plasma, oral, 25 mg, 25 mg single dose, read-out: tmax gMean): 2.14 h
